For one data set, the system named is Phospho GSK3β. Kind of data set: Western blot, PI3K/AKT/mTOR pathway inhibition: phospho GSK3β. The class given is cell-based. The conditions noted are these: 1 hour treatment; signals quantified using β-actine. The text has this: (§1) Western blot technique was used, using an Odissey Licor equipment to identify the proteins. Phospho AKT, AKT and Phospho GSK3β antibodies were used as first antibodies and anti-mouse 680nm as second antibody. Then, the signals were quantified using β-actine.
For orientation: Immunoblotting shows a protein as a band on a membrane.

A further data set relates to Phospho AKT. As to the kind of experiment: Western blot, PI3K/AKT/mTOR pathway inhibition: phospho AKT. Type of data set: cell-based. The conditions noted are these: 1 hour treatment; signals quantified using β-actine.
Excerpt: as §1

For a further data set, the system named is AKT. Kind of data set: Western blot, PI3K/AKT/mTOR pathway inhibition: total AKT. Type of data set: cell-based. The note with it: 60 min treatment; signals quantified using β-actine.
Excerpt: as §1

The next data set relates to mice. The note with it: mouse, ip, 50 mg/kg. The protocol: In order to evaluate the in vivo toxicity, mice were intraperitoneal injected with MDN-0088 at 50 mg/kg.
The next data set deals with MCF-7 cell line. As to the kind of experiment: Cell cycle analysis by flow cytometry (propidium iodide DNA staining). The note with it: for percentage of cells in each cell cycle phase: G0/G1 / percentage of cells in each cell cycle phase: G2/M / percentage of cells in each cell cycle phase: S: 72 hours of incubation. The class given is cell-based. The protocol:
For the evaluation of the MDN-0088 activity, the MCF-7 cell line was used. The method used was flow cytometry to determine the effect of MDN-0088 on cell cycle. This method of DNA staining utilizes ethanol to fix the cells and permeabilize the membrane, which allows the dye (Propidium Iodide) to enter the cells.
For this purpose, cells were seeded in 6-well plates at 200,000 cells/well. After 24 hours, cells were serum-deprived for 72 hours. Medium was removed and compounds/standards were added in fresh medium at a different concentration (4µL of compound/2mL fresh medium). DMSO concentration was 0.2% in all wells. After 72 hours of incubation (37 °C, 5% CO2), cells were scrapped and centrifuged (1200rpm for 5 min) and washed twice with PBS. 330 µL of cell suspension was placed in a Facs tube and 660 µL ice cold 100% ethanol was added drop-wise to the tube walls. Tubes were mixed by vortexing slowly during addition of ethanol. They were left at […] overnight.
Tubes were centrifuged (1200 rpm for 5 min) to remove ethanol, 4 mL PBS was added and they were washed at 1200 rpm for 5 min. The supernatant was removed and cells were resuspended in DNA staining solution (500 µL PBS/IP 20µg/mL/Rnase 0.2 mg/ml). Data was acquired on a flow cytometer (Accury, BD).
As shown in Table 3 and Figure 1, an increase in G0/G1 and a decrease both in S and G2/M phase were observed. […]

As to `O=c1cc(N2CCOCC2)oc2c(-c3ccccc3)cccc12` [LY294002, reference compound], the “phospho-GSK3 β” value in the data set on Phospho GSK3β turned out to be 0.042. In the data set on Phospho AKT, this molecule registered a pAKT of 0.055. For the same molecule, the AKT total with AKT is reported as 0.61.

`CCCCCCCC(=O)CCCc1oc(=O)ccc1O[C@@H]1O[C@H](CO)[C@@H](O)[C@H](O)[C@H]1O` [MDN-0088]: the “phospho-GSK3 β” value in the data set with Phospho GSK3β turned out to be 0.037. Moreover, the pAKT in the data set with Phospho AKT is 0.027. Also, the “weight loss or changes in behavior” value in the data set with mice (in vivo) is reported as “no weight loss or changes in their behavior”. The in vivo toxicity entry in the data set on mice is on record as “absence of toxicity”. The AKT total in the data set with AKT was 0.58. Also, the “percentage of cells in each cell cycle phase: G0/G1” value stood at 48.17% in the data set on MCF-7 cell line (MCF-7, 6.25 µM); 53.49% in the data set on MCF-7 cell line (MCF-7, 12.5 µM); 56.9% in the data set on MCF-7 cell line (MCF-7, 25 µM); 62.79% with MCF-7 cell line (MCF-7, 50 µM). Also, the “percentage of cells in each cell cycle phase: G2/M” value with MCF-7 cell line (MCF-7, 6.25 µM) is listed as 17.71%; in the data set with MCF-7 cell line (MCF-7, 12.5 µM) it was 15.76%; with MCF-7 cell line (MCF-7, 25 µM) it was 14.38%; in the data set with MCF-7 cell line (MCF-7, 50 µM), 10.99%. The “percentage of cells in each cell cycle phase: S” value in the data set on MCF-7 cell line (MCF-7, 6.25 µM) came to 6.09%; in the data set with MCF-7 cell line (MCF-7, 12.5 µM), 5.64%; in the data set with MCF-7 cell line (MCF-7, 25 µM), 3.49%; in the data set on MCF-7 cell line (MCF-7, 50 µM), 2.37%. Further, the “effect on cell cycle” value in the data set with MCF-7 cell line (MCF-7, result in words) is “blocks the cell cycle in G0/G1 phase”.

The values above are taken from patent EP3292132B1, “PI3K INHIBITOR COMPOUNDS TO TREAT CANCER” (FUNDACIÓN MEDINA. Centro de Excelencia en Investigación de …, priority 2015, dated 2016).
